Laboratory results reported in patent US11738031B2, “Compositions and methods for preventing or treating muscle conditions” (The Board of Trustees of the Leland Stanford Junior …, priority 2017, dated 2023).

Legend:
[1] = test system: MuSCs transplanted into tibialis anterior (TA) muscles of recipient mice; assay: Muscle stem cell transplantation, engraftment by bioluminescence imaging (BLI); format: in vivo, mouse; details: for BLI signal of engrafted MuSCs after secondary (notexin) injury: notexin re-injury one month after transplant
[2] = test system: gastrocnemius (GA) muscle; assay: In vivo muscle force after downhill treadmill run, aged mice, gastrocnemius; design: species or system mouse
Protocol: In vivo muscle force measurement: Aged mice (18 mo.) were subjected to downhill treadmill run for 2 consecutive weeks. During week 1, mice ran daily for 5 days and rested on days 6 and 7. […] During week 2, mice were subjected to 5 days treadmill run only. The treadmill run was performed using the Exer3/6 (Columbus Instruments). Mice ran for 10 minutes on the treadmill at 20 degrees downhill, starting at a speed of 7 meters/min. After 3 min, the speed was increased by 1 meter/min to a final speed of 14 meter/min. […] Force measurements were on the GA muscles at week 5 based on a protocol published previously^5. Briefly, for each mouse, an incision was made to expose the GA. We severed the calcaneus bone with intact achilles tendon and attached the tendon-bone complex to a 300C-LR force transducer (Aurora Scientific) with a thin metal hook. The muscles and tendons were kept moist by periodic wetting with saline (0.9% sodium chloride) solution. The lower limb was immobilized below the knee by a metal clamp without compromising the blood supply to the leg. The mouse was under inhaled anesthetic (2% isofluorane) during the entire force measuring procedure and body temperature was maintained by a heat lamp. […] Data were collected with a PCI-6251 acquisition card (National Instruments) and analyzed in Matlab. We calculated specific force values by normalizing the force measurements by the muscle physiological cross-sectional areas (PCSAs), which were similar between the control and the experimental PGE2 treated group (Table 2). PCSA (measured in mm^2) was calculated according to the following equation^12: PCSA (mm^2)=[mass (g)×Cos θ]÷[ρ (g/mm^3)×fiber length (mm)], where θ is pennation angle of the fiber and ρ is muscle density (0.001056 g/mm^3). […]
The muscle force and synchronization pulses were recorded via a PCI-6251 acquisition card (National Instruments) and analyzed using Matlab. FIGS. 5O-5P show the specific muscle force values that were calculated by normalizing the force measurements with the muscle physiological cross-sectional area. […]

[3] = 13 nM dmPGE2 daily for 5 days after downhill treadmill run, force at week 5

Compound	engraftment of aged MuSCs coinjected with dmPGE2 ([1]; aged MuSCs, 250 cells, 13 nmol dmPGE2)	engraftment of young MuSCs coinjected with dmPGE2 ([1]; freshly isolated MuSCs, 250 cells, 13 nmol dmPGE2)	BLI signal of engrafted MuSCs after secondary (notexin) injury [1]	specific tetanic force of gastrocnemius [2, 3]	specific twitch force of gastrocnemius [2, 3]	regenerative capacity of MuSCs coinjected with PGE2, by BLI ([1]; 250 GFP/Luc MuSCs into injured TAs of NSG mice (Example 3))	regenerative capacity of cultured PGE2-treated young MuSCs by BLI ([1]; acute 1-day PGE2 in culture, 250 cells transplanted on day 7 into NOD-SCID mice)	specific twitch force of gastrocnemius muscles (Example 2) ([2]; treadmill to exhaustion daily for 10 days, 3 nM PGE2 after each run, force 4 weeks after last run)
CCCCC(C)(C)[C@H](O)/C=C/[C@H]1[C@H](O)CC(=O)[C@@H]1C/C=C\CCCC(=O)O [dmPGE2, 16,16-dimethyl prostaglandin E2]	significantly enhanced engraftment	significantly enhanced engraftment	further increased in response to notexin injury	significantly increased	significantly increased			
CCCCC[C@H](O)/C=C/[C@H]1[C@H](O)CC(=O)[C@@H]1C/C=C\CCCC(=O)O [PGE2, prostaglandin E2]			spike in BLI signals			nearly two orders of magnitude	enhanced by an order of magnitude	increase in specific twitch force
